In ChEMBL document CHEMBL1152560, “Substituted 2-arylbenzothiazoles as kinase inhibitors: hit-to-lead optimization” (Bioorg Med Chem, 2009):

Columns and labels:
[1] = biological target: T1, Tyrosine-protein kinase receptor TYRO3 (Homo sapiens) (UniProt Q06418); assay: Residual activity of TYRO3 at 0.1 uM by microplate scintillation counting
T1 sequence (whole entry): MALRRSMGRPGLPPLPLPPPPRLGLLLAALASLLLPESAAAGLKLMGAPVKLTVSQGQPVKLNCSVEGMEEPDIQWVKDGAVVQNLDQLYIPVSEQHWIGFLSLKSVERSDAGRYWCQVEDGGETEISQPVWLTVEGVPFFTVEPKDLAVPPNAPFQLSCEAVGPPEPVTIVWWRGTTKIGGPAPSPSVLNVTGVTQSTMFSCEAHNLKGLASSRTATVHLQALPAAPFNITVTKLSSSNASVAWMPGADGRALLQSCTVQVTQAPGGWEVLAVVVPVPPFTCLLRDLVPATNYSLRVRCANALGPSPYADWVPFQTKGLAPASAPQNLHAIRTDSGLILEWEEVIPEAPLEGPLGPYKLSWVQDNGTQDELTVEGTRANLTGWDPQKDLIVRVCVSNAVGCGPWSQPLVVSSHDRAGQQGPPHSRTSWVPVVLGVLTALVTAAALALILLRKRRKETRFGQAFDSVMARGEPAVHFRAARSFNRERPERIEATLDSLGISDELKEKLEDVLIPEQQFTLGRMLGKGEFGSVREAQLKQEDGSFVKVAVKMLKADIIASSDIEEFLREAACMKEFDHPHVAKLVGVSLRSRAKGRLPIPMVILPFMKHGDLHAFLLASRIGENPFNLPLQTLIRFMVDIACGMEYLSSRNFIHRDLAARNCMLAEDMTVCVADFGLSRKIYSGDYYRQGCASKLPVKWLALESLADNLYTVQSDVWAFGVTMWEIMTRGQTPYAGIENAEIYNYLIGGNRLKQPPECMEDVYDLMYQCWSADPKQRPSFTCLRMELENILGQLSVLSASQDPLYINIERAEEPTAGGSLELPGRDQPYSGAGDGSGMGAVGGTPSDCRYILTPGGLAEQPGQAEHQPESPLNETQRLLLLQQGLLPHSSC

[2] = biological target: T2, Serine/threonine-protein kinase D3 (Homo sapiens) (UniProt O94806); assay: Residual activity of PKCnu at 0.1 uM by microplate scintillation counting
T2 sequence (whole entry): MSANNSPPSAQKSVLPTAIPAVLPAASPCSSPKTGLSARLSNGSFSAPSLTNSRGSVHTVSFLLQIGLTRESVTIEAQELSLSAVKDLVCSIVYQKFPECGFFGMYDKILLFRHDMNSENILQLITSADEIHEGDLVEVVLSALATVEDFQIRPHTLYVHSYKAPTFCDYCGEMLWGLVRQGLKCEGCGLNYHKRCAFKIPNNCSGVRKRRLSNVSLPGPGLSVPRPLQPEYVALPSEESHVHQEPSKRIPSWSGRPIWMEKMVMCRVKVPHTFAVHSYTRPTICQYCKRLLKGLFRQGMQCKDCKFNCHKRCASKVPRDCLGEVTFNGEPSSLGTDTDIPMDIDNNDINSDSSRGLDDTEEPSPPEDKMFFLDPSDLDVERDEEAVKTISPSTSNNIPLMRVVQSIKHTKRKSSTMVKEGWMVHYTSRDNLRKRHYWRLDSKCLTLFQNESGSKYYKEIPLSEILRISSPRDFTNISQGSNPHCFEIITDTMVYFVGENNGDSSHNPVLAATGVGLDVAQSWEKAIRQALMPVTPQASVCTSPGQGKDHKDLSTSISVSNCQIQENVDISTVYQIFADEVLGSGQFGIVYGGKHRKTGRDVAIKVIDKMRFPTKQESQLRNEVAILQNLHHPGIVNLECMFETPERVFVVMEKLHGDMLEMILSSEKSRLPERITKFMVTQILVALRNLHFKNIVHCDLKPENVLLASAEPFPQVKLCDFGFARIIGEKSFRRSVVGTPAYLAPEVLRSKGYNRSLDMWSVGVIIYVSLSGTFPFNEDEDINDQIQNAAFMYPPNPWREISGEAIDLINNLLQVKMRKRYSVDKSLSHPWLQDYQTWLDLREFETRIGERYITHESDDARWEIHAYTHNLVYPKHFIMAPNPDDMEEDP

[3] = biological target: T3, Testis-specific serine/threonine-protein kinase 1 (Homo sapiens) (UniProt Q9BXA7); assay: Residual activity of TSSK1 at 10 uM by microplate scintillation counting
T3 sequence (whole entry): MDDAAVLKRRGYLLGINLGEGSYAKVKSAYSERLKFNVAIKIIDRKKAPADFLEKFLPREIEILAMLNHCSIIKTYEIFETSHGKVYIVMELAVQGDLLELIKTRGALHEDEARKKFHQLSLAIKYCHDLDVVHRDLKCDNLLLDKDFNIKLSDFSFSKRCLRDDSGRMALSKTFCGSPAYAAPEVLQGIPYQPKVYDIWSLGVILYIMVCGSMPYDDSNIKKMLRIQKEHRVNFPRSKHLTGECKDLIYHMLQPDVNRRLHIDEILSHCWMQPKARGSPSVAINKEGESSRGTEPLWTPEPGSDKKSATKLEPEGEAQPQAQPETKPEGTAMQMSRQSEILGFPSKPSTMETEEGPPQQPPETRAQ

Row | Structure (SMILES) | residual activity [1] | residual activity [2] | residual activity [3]
1 | COc1cc2c(Oc3ccc(-c4nc5ccccc5s4)cc3)ncnc2cc1OCCCN1CCN(C)CC1 | 120% | 86% | 406%
2 | COc1cc2c(Oc3ccc(-c4nc5ccccc5s4)cc3F)ncnc2cc1OCCCN1CCN(C)CC1 | 115% | 102% | 397%
3 | COc1cc2c(Oc3ccc(-c4nc5ccccc5s4)cc3)ncnc2cc1OCCCN1CCCC1 | 106% | 93% | 322%
